In ChEMBL document CHEMBL2074198, “Influence of passive permeability on apparent P-glycoprotein kinetics” (Pharm Res, 2000):

Assays:
[1] = molecular target: T1, ATP-dependent translocase ABCB1 (Homo sapiens, UniProt P08183); assay: TP_TRANSPORTER: inhibition of Vinblastine transepithelial transport (basal to apical)(Vinblastine: 0.004 uM, Nicardipine: 60 uM) in Caco-2 cells; format: functional, cell-based; details: caco-2, 60 µM
[2] = molecular target: T1, ATP-dependent translocase ABCB1; assay: TP_TRANSPORTER: inhibition of Vinblastine transepithelial transport (basal to apical) (Vinblastine: 0.004 uM, […]: 3000 uM) in Caco-2 cells; format: functional, cell-based; details: caco-2, 3000 µM

T1 sequence (P08183 whole entry): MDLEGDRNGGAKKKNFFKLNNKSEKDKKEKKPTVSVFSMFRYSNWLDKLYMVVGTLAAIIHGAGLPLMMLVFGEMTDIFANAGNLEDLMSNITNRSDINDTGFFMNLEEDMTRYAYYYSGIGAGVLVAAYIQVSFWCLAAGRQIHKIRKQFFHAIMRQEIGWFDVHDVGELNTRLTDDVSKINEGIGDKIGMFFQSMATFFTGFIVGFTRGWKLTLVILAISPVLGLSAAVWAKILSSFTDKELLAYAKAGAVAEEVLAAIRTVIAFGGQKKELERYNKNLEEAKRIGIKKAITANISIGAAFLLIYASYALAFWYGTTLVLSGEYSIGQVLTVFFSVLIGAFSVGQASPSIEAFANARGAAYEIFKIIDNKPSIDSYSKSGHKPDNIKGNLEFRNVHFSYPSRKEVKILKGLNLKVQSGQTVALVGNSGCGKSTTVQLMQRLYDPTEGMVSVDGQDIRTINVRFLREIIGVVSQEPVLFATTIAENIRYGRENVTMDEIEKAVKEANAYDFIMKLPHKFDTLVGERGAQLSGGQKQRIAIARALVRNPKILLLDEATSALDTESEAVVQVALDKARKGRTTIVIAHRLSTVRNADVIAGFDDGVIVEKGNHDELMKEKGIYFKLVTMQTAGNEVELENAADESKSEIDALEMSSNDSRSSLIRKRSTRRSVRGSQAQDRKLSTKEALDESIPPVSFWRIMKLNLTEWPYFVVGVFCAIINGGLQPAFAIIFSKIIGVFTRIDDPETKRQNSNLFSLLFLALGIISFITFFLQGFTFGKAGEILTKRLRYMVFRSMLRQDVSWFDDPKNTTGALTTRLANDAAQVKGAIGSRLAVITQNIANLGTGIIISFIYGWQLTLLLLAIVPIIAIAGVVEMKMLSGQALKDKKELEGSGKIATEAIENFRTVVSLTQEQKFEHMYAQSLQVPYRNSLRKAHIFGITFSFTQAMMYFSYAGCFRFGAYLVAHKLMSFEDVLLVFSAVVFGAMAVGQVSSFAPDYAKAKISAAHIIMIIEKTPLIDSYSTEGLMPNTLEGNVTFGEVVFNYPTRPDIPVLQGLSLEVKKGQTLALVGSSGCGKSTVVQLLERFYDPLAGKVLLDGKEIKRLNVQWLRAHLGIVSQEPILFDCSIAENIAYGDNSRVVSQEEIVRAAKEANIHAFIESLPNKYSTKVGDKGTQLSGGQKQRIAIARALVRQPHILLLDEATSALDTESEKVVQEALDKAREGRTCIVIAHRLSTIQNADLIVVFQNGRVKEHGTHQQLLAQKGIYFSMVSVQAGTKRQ

## COC(=O)C1=C(C)NC(C)=C(C(=O)OCCN(C)Cc2ccccc2)C1c1cccc([N+](=O)[O-])c1 (configuration not stated) [NICARDIPINE]
[1]
  Activity: inhibitor [+]

## CNC(=C[N+](=O)[O-])NCCSCc1ccc(CN(C)C)o1 [RANITIDINE]
[2]
  Activity: inhibitor [+]
